According to US11266617B2, “Beta-hydroxybutyrate encapsulated PLGA nanoparticle compositions” (Massachusetts Institute of Technology, priority 2018, dated 2022):

What was measured:
Hes1-GFP organoids = assay: Hes1-GFP organoid reporter assay (GFP by flow cytometry); assay type: cell-based, mouse; details: GSI 10 uM, βOHB 50 uM, JNJ-26481585 0.2 nM; compared to control
Description: FIGS. 5A-5G show βOHB-mediated HDAC inhibition enhances NOTCH signaling. FIG. 5A, Violin plots of genes related to FIG. 12A: Notch receptor Notch1, Class I HDAC genes: HDAC1/2/3 and Notch target Hes1, based on a previously published scRNA-Seq data (Haber et al., 2017). FIG. 5B, Representative flow cytometry plots (top) and quantification of GFP expression (bottom) Hes1-GFP+ primary organoids exposed to γ-secretase inhibitor (GSI, 10 uM), βOHB (50 uM) and HDAC inhibitor (JNJ-26481585, 0.2 nM), compared to control condition. n=6 samples per treatment from n=3 mice. FIG. 5C, Organoid-forming assay for intestinal crypts isolated from WT and Hmgcs2-KO mice, with combinations of HDAC inhibitor JNJ-26481585 (JNJ) or βOHB treatments or Notch receptor inhibitor (GSI, gamma secretase inhibitor). Quantification and representative images: day-5-to-7 organoids. n=4 mice. Scale bar: 500 μm. Arrows indicate organoids and asterisks indicate aborted crypts. FIG. 5D, Schematic (top) of the mouse model including the timeline of tamoxifen (TAM) and HDACi (JNJ) injection and tissue collection. Nuclear NICD, a measure of Notch activation, by immunofluorescence (IF). […] FIG. 5E, Quantification of OLFM4^+ stem cells, LYZ+ Paneth cells and AB/PAS+ goblet cells in proximal jejunal crypts by IHC. […] FIG. 5G, Quantification and representative images of tdTomato+ Lgr5^+ ISC-derived lineage (cell progenies) by IHC. […] For box-and-whisker plots (FIG. 5C) data were expressed as box-and-whisker 10 to 90 percentiles, Data in bar graph (FIG. 5D) and dot plot (FIG. 5E and FIG. 5G) are expressed as mean+/−s.e.m. *p<0.05, **p<0.01, ***p<0.005, ****p<0.0001. […]
As previously reported and briefly summarized here (Mihaylova et al., 2018), small intestines were removed, washed with cold PBS, opened longitudinally and then incubated on ice with PBS plus EDTA (10 mM) for 30-45 min. […] Isolated crypts for cultures were counted and embedded in Matrigel™ (Corning 356231 growth factor reduced) at 5-10 crypts per μL and cultured in a modified form of medium as described previously (Sato et al., 2009; Yilmaz et al., 2012). […]

Hmgcs2-null ISCs = assay: Organoid-forming assay with Hmgcs2-null crypts/ISCs; assay type: cell-based, mouse; details: for organoid-forming capacity of Hmgcs2-null ISCs: lactate at comparable concentrations, day-5-to-7 organoids
Source text: FIGS. 11A-11N. Characterization of fatty acid oxidation (FAO) and ketogenesis in intestinal crypts. Related to FIG. 4. FIG. 11A, Schematic of the mouse model for intestinal Cpt1a deletion with the timeline for tamoxifen (TAM) injections and tissue collection. FIG. 11B, Immunohistochemistry (IHC) for CPT1a (rate limiting step of FAO) and FIG. 11C, HMGCS2 levels in WT and intestinal Cpt1a loss. Images represent one of 5 biological replicates per group. FIG. 11D, βOHB levels in Cpt1a-null intestinal crypts. n=8 measurements for 4 mice per group. […] The image represents one of 8 biological replicates. FIG. 11F, IHC for HMGCS2, indicating intact HMGCS2 expression in the absence of Paneth cell. The image represents one of 8 biological replicates. For FIGS. 11C-11F, Scale bar: 50 um. FIG. 11G, Schematic of the mouse model for intestinal Hmgcs2 deletion with the timeline for TAM injections and tissue collection. FIG. 11H, Hepatic and intestinal HMGCS2 expression by IHC and FIG. 11I, serum βOHB levels in Hmgcs2-KO mice. FIG. 11J, Intestinal CPT1a expression in mice with conditional intestinal loss of Hmgcs2 by IHC, Scale bar: 100 um. The image represents one of 5 biological replicates. […] FIG. 11L, Organoid-forming assay for number of organoids per intestinal crypt, numbers of Alcian blue^+ goblet cells (black arrows) and percentage of tdTomato^+ area per organoid from WT and Hmgcs2-KO (−/−) ISCs, ±βOHB treatments: +, 10 uM and ++50 uM. Representative images: day-5-to-7 organoids. Scale bar: 50 μm. n=5 mice. […] N, Synthesis of glycerol tri((R)-3-hydroxybutyrate).
As previously reported and briefly summarized here (Mihaylova et al., 2018), small intestines were removed, washed with cold PBS, opened longitudinally and then incubated on ice with PBS plus EDTA (10 mM) for 30-45 min. Tissues were then moved to PBS. Crypts were then mechanically separated from the connective tissue by shaking or by scraping, and then filtered through a 70-μm mesh into a 50-mL conical tube to remove villus material and tissue fragments. Isolated crypts for cultures were counted and embedded in Matrigel™ (Corning 356231 growth factor reduced) at 5-10 crypts per μL and cultured in a modified form of medium as described previously (Sato et al., 2009; Yilmaz et al., 2012). Unless otherwise noted, crypt culture media consists of Advanced DMEM (Gibco) that was supplemented with EGF 40 ng mL^−1 (PeproTech), Noggin 200 ng mL^−1 (PeproTech), R-spondin 500 ng mL^−1 (R&D, Sino Bioscience or (Ootani et al., 2009)), N-acetyl-L-cysteine […] (Sigma-Aldrich), N2 1× (Life Technologies), B27 1× (Life Technologies), CHIR99021 3 μM (LC laboratories), and Y-27632 dihydrochloride monohydrate 10 μM (Sigma-Aldrich). Intestinal crypts were cultured in the above-mentioned media in 20-25 μL droplets of Matrigel™ were plated onto a flat bottom 48-well plate (Corning 3548) and allowed to solidify for 20-30 minutes in a 37° C. incubator. Three hundred microliters of crypt culture medium was then overlaid onto the Matrigel™, changed every three days, and maintained at 37° C. in fully humidified chambers containing 5% CO2. Clonogenicity (colony-forming efficiency) was calculated by plating 50-300 crypts and assessing organoid formation 3-7 days or as specified after initiation of cultures. β-Hydroxybutyrate (Sigma, 54965), Quisinostat (JNJ-26481585) 2HCl (Selleckchem, S1096), Entinostat (MS-275) (Selleckchem, S1053), Trichostatin A (Selleckchem, 51045) and γ-secretase inhibitor MK-0752 (Cayman Chemical Company, 471905-41-6) were added into cultures as indicated in the figure legends. Plasmids for Hdac1 CRISPR-deletion (sc-436647), Cre-expression (sc-418923), Cre-expression and Hmgcs2 CRISPR-deletion (VB180615-1103gue) were used for organoid transfection according to manufacturers' instructions.
If not directly used for cultures, crypts were then dissociated into single cells and sorted by flow cytometry. […]

Lgr5+ ISCs = assay: Intestinal regeneration after irradiation in Hmgcs2-KO mice (Lgr5 lineage tracing); assay type: in vivo, mouse; details: Hmgcs2-null mice; 1 mg/kg, 5 i.p. injections; XRT 7.5 Gy×2
Source text: FIG. 4F, Schematic (top) of the mouse model including the timeline of tamoxifen (TAM) injection, oral administration of nanoparticle PLGA encapsulated βOHB or non-encapsulated βOHB oligomers, irradiation (XRT, 7.5 Gy×2) and tissue collection. Quantification (bottom) and representative images (right) of tdTomato+ Lgr5^+ ISC-derived lineage (cell progenies) by IHC. Scale bar: 100 μm. n>25 crypts per measurement, n>5 measurements per mouse and n>3 mice per group. […] Data in dot plots were expressed as mean+/−s.e.m. *p<0.05, **p<0.01, ***p<0.005.

intestinal crypts = assay: HDAC inhibitor treatment of Hmgcs2-null mice, crypt histology (NICD, H3K27ac, OLFM4, LYZ, AB/PAS); assay type: in vivo, mouse; details: 1 mg/kg, 5 i.p. injections
class I HDACs = details: reported (Shimazu et al., 2013); cited from earlier work

## O=C(O)CC[C@H]1CC[C@@](c2cc(F)ccc2F)(S(=O)(=O)c2ccc(Cl)cc2)CC1 [GSI, MK-0752]
Hes1-GFP organoids
  GFP expression of Hes1-GFP organoids (NOTCH target gene expression): dampened GFP expression
Hmgcs2-null ISCs; GSI added to βOHB or JNJ treated cultures
  restoration of organoid-forming capacity of Hmgcs2-null crypts by βOHB or JNJ under NOTCH blockade: prevented the ability of either βOHB or JNJ HDAC inhibitor

## Nc1ccccc1NC(=O)c1ccc(CNC(=O)OCc2cccnc2)cc1 [MS-275, Entinostat (MS-275)]
Hmgcs2-null ISCs; 10-to-100 nM
  Hmgcs2-null organoid function: rescued
Hmgcs2-null ISCs; doses beyond 10-to-100 nM
  Hmgcs2-null organoid function: failed to do so

## CC(O)C(=O)O (centres unmarked) [lactate]
Hmgcs2-null ISCs; βOHB 10 uM and 50 uM
  organoid-forming capacity of Hmgcs2-null ISCs: not
Hmgcs2-null ISCs; βOHB 10 uM and 50 uM, listed as Lactate
  organoid-forming capacity of Hmgcs2-null ISCs: did not affect

## Cn1cc(CNCC2CCN(c3ncc(C(=O)NO)cn3)CC2)c2ccccc21 [Quisinostat, Quisinostat (JNJ-26481585) 2HCl]
Hes1-GFP organoids
  GFP expression of Hes1-GFP organoids (NOTCH target gene expression): increased GFP expression
Hmgcs2-null ISCs; HDAC inhibitor at a dose shown to block HDAC1 activity, alone or with βOHB
  crypt organoid-forming capacity of Hmgcs2-null crypts: rescued crypt organoid-forming capacity
Lgr5+ ISCs
  ISC function after injury: rescued
Intestinal crypts
  decline in ISCs numbers (OLFM4+ stem cells): rescued
  decrease in numbers of H3K27ac or NICD positive crypt cell nuclei: prevented these changes
  expansion of secretory cell types: rescued

## CC(O)CC(=O)O (stereo not drawn) [βOHB, β-hydroxybutyrate]
Hes1-GFP organoids
  GFP expression of Hes1-GFP organoids (NOTCH target gene expression): increased GFP expression
Hmgcs2-null ISCs; βOHB 10 uM and 50 uM, Alcian blue+ goblet cells
  secretory lineage bias of Hmgcs2-null organoids: rectified
Hmgcs2-null ISCs; βOHB 10 uM and 50 uM
  organoid-forming capacity of Hmgcs2-null ISCs: rectified
Hmgcs2-null ISCs; βOHB 10 uM and 50 uM, tdTomato+ area per organoid
  generation of tdTomato+ clones by Hmgcs2-null ISCs: rectified
Class I HDACs
  inhibition of class I HDACs: endogenous inhibitor for class I HDACs
